Earlier results as cited in patent US20020187120A1, “Method for treating gout and reducing serum uric acid” (GelTex Pharmaceutical, Inc., priority 2001, published 2002).

Conditions: administered orally

COc1cc2c(c(OC)c1OC)-c1ccc(OC)c(=O)cc1[C@@H](NC(C)=O)CC2 [colchicine]
people who cannot tolerate the drug because of side effects: 80%
